The text below walks through data of article PMC2841005 (Developmental and comparative immunology, 2010).

Holding throughout (type): cell-based
One test concerns E. coli O157:H7. Briefly: MIC, broth micro-dilution assay.
The test system of test [1] is Gram-negative and Gram-positive bacterial strains. Briefly: Antibacterial activity against the panel of strains, broth micro-dilution assay.
The test system of a further test is bacteria. Briefly: Antibacterial test of the first synthetic 27-residue repeat peptide. The conditions noted are these: data not shown.

With “SLGTPDHYHGGRHSISRGSQSTGPTHPGYNRRNAR [LP3]”, the “Activity against E. coli O157:H7 (in words)” value in the test on E. coli O157:H7 is given as “low activity”. For the same sequence, the “Antibacterial activity against the bacterial strains tested (in words)” value (from here on “Antibacterial activity”) in test [1] is reported as “active against bacteria”.

As to RSVETLASQEHLSSLPMDSQETLLRGT, the “Killing of bacteria (in words)” value with bacteria is given as “did not kill any bacteria”.

In the case of SVETLASQEHLSSLPMDSQETLLRGTR [LP4], in test [1], the “Antibacterial activity” value is listed as “no activity”.

As to SVETLASQEHLSSLPMDSQETLLRGT [LP4A], in test [1], the “Antibacterial activity” value was “inactive”.

With “ESGNEPLWLYQGDNIPKAPSTAEHPFLPSIIDDVKFNPDRRYAR [LP2]”, the “Antibacterial activity” value in test [1] was “did not exhibit antimicrobial activity”.

As for “ESGNEPLWLYQGDNIPKAPSTAEHPFLPSIIDDVKFNPDRRYA [LP2A]”, in test [1], the “Antibacterial activity” value is listed as “did not affect the bacterial growth”.

As to “SLGTPDHYHGGRHSISRGSQSTGPTHPGYNRRNA [LP3A]”, the “Activity against E. coli O157:H7 (in words)” value in the test with E. coli O157:H7 was “inactive”. Besides, the “Antibacterial activity” value in test [1] was “inactive”.
